Experiments:
[1] = system: SK-BR-3; assay: Inhibition of proliferation of cells SK-BR-3 (CelltiterGlo, 72 h); type: cell-based; conditions: Homo sapiens; SK-BR-3 cells, 72 h, CTG; read-out: IC50 (nM), antiproliferative activity on SK-BR-3
Procedure: (§1) • (1) Cell plating: first, tumor cells SK-BR-3 were cultured using a corresponding culture medium, trypsinized, centrifuged, resuspended for counting, adjusted to an appropriate concentration, and then plated on a 384-well plate. • (2) Co-incubation of the compounds and tumor cells: after the cells adhered to the wall, 100 nL of a diluted bioactive substance (test compound) was added to the cell culture plate using ECHO, the final concentration of DMSO in wells of the cell plate was 0.33%, and the incubation was performed in an incubator at 37° C. with 5% CO2 for 72 h. • (3) After the incubation was complete, 30 μL of a CTG reagent (CelltiterGlo kit) was added to each well. The culture was oscillated on a fast oscillator for 2 min, centrifuged at 1,000 rpm for 1 min, and kept away from light at room temperature for 30 min. The chemiluminescence signal value was read using an Envision instrument. • (4) Cell viability detection: IC50 was calculated using GraphPad Prism 8 software, and the IC50 of the compounds was obtained using the following nonlinear fitting formula (see Table 1):
[formula] • Y: inhibition rate; X: log value of compound concentration-,
(§2) [formula] • high-reading control wells: cells with addition of 100 nL DMSO; and • low-reading control wells: cell-free wells.

[2] = system: MDA-MB-468; assay: Inhibition of proliferation of cells MDA-MB-468 (CelltiterGlo, 72 h); type: cell-based; conditions: Homo sapiens; MDA-MB-468 cells, 72 h, CTG; read-out: IC50 (nM), antiproliferative activity on MDA-MB-468
Procedure: as §1, with “MDA-MB-468” for “SK-BR-3”, “[…]” for “5%”, “2):” for “1):”
[formula] • Y: inhibition rate: X: log value of compound concentration;
as §2

[3] = Pharmacokinetic test in SD rats; conditions: male, Sprague-Dawley (SD), rat, in vivo, iv, 2 mg/kg
Procedure: After a single intravenous injection (dose: 2 mpk) of the compounds 6-2, 11-2, 17-2, and Dxd into male SD rats (blood collection time points: 0.083 h, 0.25 h, 0.5 h, 1 h, 2 h, 4 h, 8 h, and 24 h after IV administration, totaling 8 blood collection time points), average pharmacokinetic parameters in the plasma are as shown in Table 5: […]

Compound: CC[C@@]1(O)C(=O)OCc2c1cc1n(c2=O)Cc2c-1nc1cc(F)c(C)c3c1c2[C@@H](NC(=O)[C@@H](O)C1CC1)CCC3 [Compound 11-2, (S)-2-cyclopropyl-N-((1S,10S)-10-ethyl-6-fluoro-10-hydroxy-5-methyl-11,14-dioxo-1,2,3,4,10,11,14,16-octahydro-13H-cyclohepta[de]pyrano[3′,4′:6,7]indolizino[1,2-b]quinolin-1-yl)-2-hydroxyacetamide]
- IC50 [1]: 2.4 nM
- IC50 [2]: 4.5 nM
- AUC(0-inf) [3]: 465 ng·h/mL
- AUC(0-t) [3]: 460 ng·h/mL
- C0 [3]: 848 ng/mL
- Vd [3]: 3.01 L/kg
- clearance [3]: 72.7 mL/min/kg
- half-life [3]: 37.8 min

From patent publication US20260209242A1, “CAMPTOTHECIN DERIVATIVE, PHARMACEUTICAL COMPOSITION, AND PREPARATION METHOD AND USE THEREFOR” (priority 2022, published 2026)
